According to PMC8482806, “A Novel Blood-Brain Barrier-Permeable Chemotherapeutic Agent for the Treatment of Glioblastoma” (Cureus, 2021):

Legend:
[1] = [14C]-QBS10072S distribution by quantitative whole-body autoradiography in mice with intracranial LN229 tumors; format: in vivo, mouse; conditions: 5 mg/kg IV
Method: Athymic mice with intracranial implanted LN229 cells received a single IV dose of 5 mg/kg and 200 μCi/kg [14C]-QBS10072S into the tail vein using the formulation described above. Animals (one per time point) were sacrificed one, eight, and 24 hours post-dose, and frozen in a hexane/solid carbon dioxide bath for at least 10 minutes. The carcasses were processed as described for quantitative whole-body autoradiography. Briefly, sagittal sections (~ 40 μm thick) were cut using a microtome, mounted, and exposed to a [14C]-sensitive phosphor imaging plate for four days. The images were scanned and quantitated by image densitometry using MCID image analysis software. The concentrations of radioactivity were expressed as the μg equivalents of test article per gram sample (μg equiv/g). The upper and lower limits of quantification were 550 and 0.008 μg equiv/g, respectively (QPS, Newark, DE).

DBTRG cells = test: Cell viability assay (CellTiter-Glo), DBTRG; format: cell-based; conditions: Homo sapiens; Cell Line: DBTRG; read-out: LC50 (μM ± SD)
Method: (§1) In vitro activity of QBS10072S was assessed using a modified clonogenic cell viability assay in 96-well clear-bottom plates. For the LLC-PK1 inducible LAT1-expressing cell line, 1000 cells/well were plated and cells were treated with either butyrate alone (non-induced) or with both butyrate and doxycycline (induced) as described above. For GBM cell lines, 2000 cells/well were plated. On day 2 (GBM) or day 3 (LLC-PK1) after original plating, cells were washed twice with PBS and incubated with 50 μL of various concentrations of QBS10072S in PBS in at least quadruplicate. After 30 minutes at 37°C, 200 μL of growth medium was added to each well. Clonal populations were allowed to grow until the control wells (mock treatment) were near confluence (7 to 10 days). At this point, 170 μL media were removed and 60 μL CellTiter-Glo® (Promega, Madison, WI) were added to each well. Plates were placed on an orbital shaker for three minutes to lyse the cells and then incubated for an additional 10 minutes at RT to stabilize the luminescent signal. Luminescence was recorded using an EnSpire® Multimode Plate Reader (Perkin Elmer). Background (luminescence from wells incubated with 100 μM melphalan or lomustine) was subtracted and data were normalized to the control. EC50s were determined by non-linear regression using GraphPad Prism.

U87-MGMT cells = test: WST1 cell viability assay, U87-MGMT; format: cell-based; conditions: Homo sapiens, read-out: LC50 (μM ± SD)
Method: In vitro activities of QBS10072S and temozolomide (TMZ) in U87 and U87-MGMT cells were assessed using the WST1 cell viability assay in 96-well plates in which 500/well of cells were plated in sextuplets for each condition. To avoid cell loss, the following washing and medium removing procedures were all done using a P200 pipet without vacuum aspiration. For QBS10072S treatment, cells were washed with PBS the next day and incubated with 50 μL of various concentrations of QBS10072S in PBS for 1 hour at 37°C. After incubation, 150 μL of growth medium was added to each well. The medium was subsequently changed every two days until day 7. For TMZ treatment, cells were treated with 100 μL of various concentrations of TMZ in a growth medium for 2 days. After incubation, cells were put back in a normal growth medium and continued culturing for five days. In the end, 10 μL of WST1 reagent was added to each well and incubated at 37°C for 4h before subjecting to plate reading at 450 nm and 690nm using an EnSpire multimode plate reader (PerkinElmer). Background (OD690nm) was subtracted and data were normalized to the control. LC50s were determined by non-linear regression using GraphPad Prism (GraphPad Software Inc., San Diego, California)

[2] = test system: breast cancer metastatic tumors; parameters: method as in PMID 34635566; conditions: leptomeningeal metastatic disease model, BBB never disrupted; cited from earlier work
U251 cells = test: Cell viability assay (CellTiter-Glo), U251; format: cell-based; conditions: Homo sapiens, U-251; Cell Line: U251; read-out: LC50 (μM ± SD)
Method: as §1

SMILES: Cc1ccc(N(CCCl)CCCl)cc1C[C@H](N)CC(=O)O [QBS10072S, (+)-(3S)-amino-4-[5-[bis(2-chloroethyl)amino]-2-methyl-phenyl]butanoic acid]
- level in brain tumor as % of blood levels ([1]; 1 hour post-dose): 89%
- level in brain tumor as % of blood levels ([1]; 8 hours post-dose): 73%
- level in brain tumor as % of blood levels ([1]; 24 hours post-dose): 37%
- CC50 (DBTRG cells): 5 ± 2 µM
- CC50 (U87-MGMT cells): 12.8 ± 4.1 µM
- inhibition of tumor growth with intact BBB [2]: still effective for inhibiting tumor growth
- CC50 (U251 cells): 12 ± 2 µM
